Measured values as given in US11274083B2, “Substituted thiophenyl uracils, salts thereof and the use thereof as herbicidal agents” (Syngenta Crop Protection AG, priority 2017, dated 2022).

Columns and labels:
Type in all cases: in vivo
Digitaria sanguinalis = assay: Herbicidal action post-emergence, greenhouse pot test; conditions: application rate 20 g/ha
Oryza sativa = assay: Crop compatibility post-emergence, greenhouse pot test; conditions: application rate 20 g/ha
Outline: (§1)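 Pot-grown plants in sandy loam, greenhouse, sprayed post-emergence at the one-leaf stage (2–3 weeks after sowing) with WP or EC formulations as aqueous spray plus 0.5% additive at 600 L/ha. Damage scored visually after about 3 weeks versus untreated controls, in % (0% = like control, 100% = dead).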

Zea mays = assay: as above; conditions: application rate 20 g/ha
Outline: as §1

Alopecurus myosuroides [1] = assay: Herbicidal action post-emergence, greenhouse pot test; conditions: scored visually after about 3 weeks vs untreated controls
Outline: (§2)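 Test plants, treated at the one-leaf stage 2 to 3 weeks after sowing in sandy loam, received a foliar spray at 80 g/ha or lower. Visual damage was rated about 3 weeks later as percent efficacy versus untreated plants.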

Amaranthus retroflexus [2] = assay: as above
Outline: as §2

Pharbitis purpurea [3] = assay: as above
Outline: as §2

Abutilon theophrasti [4] = assay: as above
Outline: as §2

Veronica persica [5] = assay: as above
Outline: as §2

Viola tricolor [6] = assay: as above; conditions: application rate 20 g/ha
Outline: as §2

Matricaria inodora [7] = assay: as above
Outline: as §2

Stellaria media [8] = assay: as above
Outline: as §2

Setaria viridis [9] = assay: as above; conditions: application rate 20 g/ha
Outline: as §2

Polygonum convolvulus [10] = assay: as above
Outline: as §2

Avena fatua [11] = assay: as above
Outline: as §2

Echinochloa crus-galli [12] = assay: as above
Outline: as §2

Triticum aestivum = assay: Crop compatibility post-emergence, greenhouse pot test
Outline: as §1

Lolium rigidum [13] = assay: Herbicidal action post-emergence, greenhouse pot test; conditions: application rate 80 g/ha
Outline: as §2

Matricaria inodora [14] = assay: Herbicidal action pre-emergence, greenhouse pot test
Excerpt: Seeds of mono- and dicotyledonous weeds and crop plants were laid out in plastic or organic plant pots and covered with soil. The compounds of the invention formulated in the form of wettable powders (WP) or as emulsion concentrates (EC) were then applied to the surface of the covering soil as an aqueous suspension or emulsion with addition of 0.5% additive at a water application rate equivalent to 600 L/ha. After the treatment, the pots were placed in a greenhouse and kept under good growth conditions for the test plants. After about 3 weeks, the efficacy of the preparations was scored visually as a percentage by comparison with untreated controls. For example, 100% efficacy=plants have died. 0% efficacy=like control plants. Tables B1 to B17 below show the efficacies of selected compounds of the general formula (I) […] aforementioned trial method.

Alopecurus myosuroides [15] = assay: as above; conditions: application rate 320 g/ha
Outline: (§3)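 Under good greenhouse growth conditions, treated pots are compared visually with untreated ones about three weeks after spraying; the score runs from 0% (like control) to 100% (plants died). Treatment was a WP or EC spray to the soil over sown seeds, at up to 320 g/ha.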

Amaranthus retroflexus [16] = assay: as above
Outline: as §3

Pharbitis purpurea [17] = assay: as above
Outline: as §3

Abutilon theophrasti [18] = assay: as above
Outline: as §3

Veronica persica [19] = assay: as above
Outline: as §3

Viola tricolor [20] = assay: as above
Outline: as §3

Lolium rigidum [21] = assay: as above; conditions: application rate 320 g/ha
Outline: as §3

Stellaria media [22] = assay: as above
Outline: as §3

Setaria viridis [23] = assay: as above
Outline: as §3

Hordeum murinum = assay: as above; conditions: application rate 320 g/ha
Outline: as §3

Polygonum convolvulus [24] = assay: as above
Outline: as §3

Avena fatua [25] = assay: as above; conditions: application rate 320 g/ha
Outline: as §3

Echinochloa crus-galli [26] = assay: as above; conditions: application rate 320 g/ha
Outline: as §3

Cyperus esculentus = assay: as above; conditions: application rate 320 g/ha
Outline: as §3

Oryza sativa (Efficacy in %) (Oryza sativa) [%]	Zea mays (Efficacy in %) (Zea mays) [%]	Compound	Amaranthus retroflexus (Efficacy in %) (Amaranthus retroflexus [2]; application rate 20 g/ha) [%]	Pharbitis purpurea (Efficacy in %) (Pharbitis purpurea [3]; application rate 20 g/ha) [%]	Abutilon theophrasti (Efficacy in %) (Abutilon theophrasti [4]; application rate 20 g/ha) [%]	Viola tricolor (Efficacy in %) (Viola tricolor [6]) [%]	Matricaria inodora (Efficacy in %) (Matricaria inodora [7]; application rate 20 g/ha) [%]	Stellaria media (Efficacy in %) (Stellaria media [8]; application rate 20 g/ha) [%]	Setaria viridis (Efficacy in %) (Setaria viridis [9]) [%]	Polygonum convolvulus (Efficacy in %) (Polygonum convolvulus [10]; application rate 20 g/ha) [%]	Echinochloa crus-galli (Efficacy in %) (Echinochloa crus-galli [12]; application rate 20 g/ha) [%]	Veronica persica (Efficacy in %) (Veronica persica [5]; application rate 80 g/ha) [%]	Lolium rigidum (Efficacy in %) (Lolium rigidum [13]) [%]	Alopecurus myosuroides (Efficacy in %) (Alopecurus myosuroides [15]) [%]	Lolium rigidum (Efficacy in %) (Lolium rigidum [21]) [%]	Hordeum murinum (Efficacy in %) (Hordeum murinum) [%]	Avena fatua (Efficacy in %) (Avena fatua [25]) [%]	Echinochloa crus-galli (Efficacy in %) (Echinochloa crus-galli [26]) [%]	Cyperus esculentus (Efficacy in %) (Cyperus esculentus) [%]	also measured
0	0	CCOC(=O)CCOC(=O)C(CC)Sc1cc(-n2c(=O)cc(C(F)(F)F)n(C)c2=O)c(F)cc1Cl (stereo not shown) [I.1-2-3, 3-Ethoxy-3-oxopropyl 2-({2-chloro-4-fluoro-5-[3-methyl-2,6-dioxo-4-(trifluoromethyl)-3,6-dihydropyrimidin-1(2H)-yl]phenyl}sulfanyl)butanoate]	100	100	100	100	100	100	100	100	100	–	–	–	–	–	–	–	–	Digitaria sanguinalis (Efficacy in %) (Digitaria sanguinalis): 100%; Alopecurus myosuroides (Efficacy in %) (Alopecurus myosuroides [1]; application rate 20 g/ha): 90%; Veronica persica (Efficacy in %) (Veronica persica [5]; application rate 20 g/ha): 100%; Avena fatua (Efficacy in %) (Avena fatua [11]; application rate 20 g/ha): 100%
10	–	COC(=O)COC(=O)C(C)Sc1cc(-n2c(=O)cc(C(F)(F)F)n(C)c2=O)c(F)cc1Cl (stereo not shown) [I.1-42]	100	100	100	100	100	100	100	100	100	100	90	90	100	100	90	100	100	Triticum aestivum (Efficacy in %) (Triticum aestivum; application rate 20 g/ha): 20%; Matricaria inodora (Efficacy in %) (Matricaria inodora [14]; application rate 80 g/ha): 100%; Amaranthus retroflexus (Efficacy in %) (Amaranthus retroflexus [16]; application rate 20 g/ha): 100%; Pharbitis purpurea (Efficacy in %) (Pharbitis purpurea [17]; application rate 80 g/ha): 100%; Abutilon theophrasti (Efficacy in %) (Abutilon theophrasti [18]; application rate 80 g/ha): 100%; Veronica persica (Efficacy in %) (Veronica persica [19]; application rate 80 g/ha): 100%; Viola tricolor (Efficacy in %) (Viola tricolor [20]; application rate 80 g/ha): 100%; Stellaria media (Efficacy in %) (Stellaria media [22]; application rate 80 g/ha): 100%; Setaria viridis (Efficacy in %) (Setaria viridis [23]; application rate 80 g/ha): 100%; Polygonum convolvulus (Efficacy in %) (Polygonum convolvulus [24]; application rate 80 g/ha): 100%
20	20	CNC(=O)COC(=O)C(C)Sc1cc(-n2c(=O)cc(C(F)(F)F)n(C)c2=O)c(F)cc1Cl (stereo not shown) [I.1-182]	–	–	–	100	–	–	–	–	–	100	100	80	100	90	90	100	80	Triticum aestivum (Efficacy in %) (Triticum aestivum; application rate 5 g/ha): 10%; Alopecurus myosuroides (Efficacy in %) (Alopecurus myosuroides [1]; application rate 80 g/ha): 80%; Amaranthus retroflexus (Efficacy in %) (Amaranthus retroflexus [2]; application rate 80 g/ha): 100%; Pharbitis purpurea (Efficacy in %) (Pharbitis purpurea [3]; application rate 80 g/ha): 100%; Abutilon theophrasti (Efficacy in %) (Abutilon theophrasti [4]; application rate 80 g/ha): 100%; Matricaria inodora (Efficacy in %) (Matricaria inodora [7]; application rate 80 g/ha): 100%; Stellaria media (Efficacy in %) (Stellaria media [8]; application rate 80 g/ha): 100%; Polygonum convolvulus (Efficacy in %) (Polygonum convolvulus [10]; application rate 80 g/ha): 100%; Avena fatua (Efficacy in %) (Avena fatua [11]; application rate 80 g/ha): 90%; Echinochloa crus-galli (Efficacy in %) (Echinochloa crus-galli [12]; application rate 80 g/ha): 100%; Matricaria inodora (Efficacy in %) (Matricaria inodora [14]; application rate 320 g/ha): 100%; Amaranthus retroflexus (Efficacy in %) (Amaranthus retroflexus [16]; application rate 80 g/ha): 100%; Pharbitis purpurea (Efficacy in %) (Pharbitis purpurea [17]; application rate 320 g/ha): 100%; Abutilon theophrasti (Efficacy in %) (Abutilon theophrasti [18]; application rate 320 g/ha): 100%; Veronica persica (Efficacy in %) (Veronica persica [19]; application rate 320 g/ha): 100%; Viola tricolor (Efficacy in %) (Viola tricolor [20]; application rate 320 g/ha): 100%; Stellaria media (Efficacy in %) (Stellaria media [22]; application rate 320 g/ha): 100%; Setaria viridis (Efficacy in %) (Setaria viridis [23]; application rate 320 g/ha): 100%; Polygonum convolvulus (Efficacy in %) (Polygonum convolvulus [24]; application rate 320 g/ha): 100%
